# Results as given in publication PMC6271231 (Molecules, 2014).
# pIC50: −log10 of the molar value. Entries after “also recorded” stand apart in the source; their conditions may differ.
# Molecular target: NA of A/PR/8/34 (H1N1) (Influenza A virus, UniProt P03468)
# Assay: biochemical
# Type: biochemical, influenza A virus A/PR/8/34 (H1N1)
# NA of A/PR/8/34 (H1N1), sequence (P03468 whole entry): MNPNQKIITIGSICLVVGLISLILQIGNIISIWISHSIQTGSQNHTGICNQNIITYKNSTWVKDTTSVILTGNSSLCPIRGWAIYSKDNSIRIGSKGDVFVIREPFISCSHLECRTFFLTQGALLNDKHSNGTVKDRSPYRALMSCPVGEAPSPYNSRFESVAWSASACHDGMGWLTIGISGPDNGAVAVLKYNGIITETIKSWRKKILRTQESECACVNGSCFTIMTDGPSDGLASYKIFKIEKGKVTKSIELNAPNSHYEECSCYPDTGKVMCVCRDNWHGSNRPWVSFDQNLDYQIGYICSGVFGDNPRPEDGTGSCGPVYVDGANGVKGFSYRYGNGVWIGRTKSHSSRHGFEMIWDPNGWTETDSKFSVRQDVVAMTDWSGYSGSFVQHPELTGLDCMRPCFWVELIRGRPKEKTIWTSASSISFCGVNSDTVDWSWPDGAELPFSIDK
Compound,pIC50,inhibitory effect against influenza H1N1 virus neuraminidase (in words)
"O=C(Oc1cc(O)c2c(c1)OC(c1cc(O)c(O)c(O)c1)C(O)C2)c1cc(O)c(O)c(O)c1 (single isomer, unassigned; (+)) [Compound 3, (+)-3,5,3',4',5'-penta-hydroxyflavan-7-gallate]",< 4.06,
"O=C(Oc1cc(O)c2c(c1)O[C@H](c1cc(O)c(O)c(O)c1)CC2)c1cc(O)c(O)c(O)c1 [Compound 2, (−)-5,3',4',5'-tetrahydroxyflavan-7-gallate]",4.08,higher inhibitory activities on NA from influenza H1N1 virus than on those from influenza H3N2 and B viruses; also recorded: moderate inhibitory effects
"O=C(Oc1cc(O)c2c(c1)O[C@H](c1cc(O)c(OC(=O)c3cc(O)c(O)c(O)c3)c(O)c1)CC2)c1cc(O)c(O)c(O)c1 [Compound 4, (−)-7,4'-di-O-galloyltricetiflavan]",< 4.17,
"CC1(C)O[C@@H]2Cc3c(O)cc(OC(=O)c4cc(O)c(O)c(O)c4)cc3O[C@@H]2c2cc(O)c(O)c(O)c21 [Compound 1, (2R,3R)-7-O-galloylplumbocatechin A]",4.22,higher inhibitory activities on NA from influenza H1N1 virus than on those from influenza H3N2 and B viruses; also recorded: moderate inhibitory effects; also recorded: best results
